Measured values from ChEMBL document CHEMBL4507291 (2021).

Experiments:
[1] = target: T1, 5-hydroxytryptamine receptor 3A (Homo sapiens) (UniProt P46098); assay: Inhibition of Serotonin (5-Hydroxytryptamine) 5-HT3 at 10 µM in the Eurofins-Panlabs radioligand binding assay (Eurofins_assay_271910); set-up: ligand concentration 0.69 nM; details: Compound concentration 10.0 uM
T1 sequence (whole entry): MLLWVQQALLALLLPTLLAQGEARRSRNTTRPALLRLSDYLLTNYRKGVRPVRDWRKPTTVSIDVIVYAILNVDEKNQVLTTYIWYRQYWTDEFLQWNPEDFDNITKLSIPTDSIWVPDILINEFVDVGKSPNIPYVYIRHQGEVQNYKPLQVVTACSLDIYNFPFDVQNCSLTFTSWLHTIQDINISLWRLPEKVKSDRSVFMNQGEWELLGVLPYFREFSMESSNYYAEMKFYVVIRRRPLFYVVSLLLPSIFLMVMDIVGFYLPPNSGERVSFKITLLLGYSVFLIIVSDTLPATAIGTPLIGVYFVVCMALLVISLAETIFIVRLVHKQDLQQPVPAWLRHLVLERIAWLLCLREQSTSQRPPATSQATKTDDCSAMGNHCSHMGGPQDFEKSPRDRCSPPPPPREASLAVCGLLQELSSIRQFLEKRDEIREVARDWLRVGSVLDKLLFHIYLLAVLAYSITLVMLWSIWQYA

[2] = target: Macrophage-stimulating protein receptor (Homo sapiens) (UniProt Q04912); assay: MST1R (RON) Kinase screen; details: Compound concentration 1.0 uM
[3] = target: BDNF/NT-3 growth factors receptor (Homo sapiens) (UniProt Q16620); assay: NTRK2 (TRKB) Kinase screen; details: Compound concentration 1.0 uM
[4] = target: Calcium/calmodulin-dependent protein kinase kinase 2 (Homo sapiens) (UniProt Q96RR4); assay: CAMKK2 (CaMKK beta) Kinase screen; details: Compound concentration 1.0 uM
Chain of Calcium/calmodulin-dependent protein kinase kinase 2 (Homo sapiens) (Q96RR4 2-588 limits assumed): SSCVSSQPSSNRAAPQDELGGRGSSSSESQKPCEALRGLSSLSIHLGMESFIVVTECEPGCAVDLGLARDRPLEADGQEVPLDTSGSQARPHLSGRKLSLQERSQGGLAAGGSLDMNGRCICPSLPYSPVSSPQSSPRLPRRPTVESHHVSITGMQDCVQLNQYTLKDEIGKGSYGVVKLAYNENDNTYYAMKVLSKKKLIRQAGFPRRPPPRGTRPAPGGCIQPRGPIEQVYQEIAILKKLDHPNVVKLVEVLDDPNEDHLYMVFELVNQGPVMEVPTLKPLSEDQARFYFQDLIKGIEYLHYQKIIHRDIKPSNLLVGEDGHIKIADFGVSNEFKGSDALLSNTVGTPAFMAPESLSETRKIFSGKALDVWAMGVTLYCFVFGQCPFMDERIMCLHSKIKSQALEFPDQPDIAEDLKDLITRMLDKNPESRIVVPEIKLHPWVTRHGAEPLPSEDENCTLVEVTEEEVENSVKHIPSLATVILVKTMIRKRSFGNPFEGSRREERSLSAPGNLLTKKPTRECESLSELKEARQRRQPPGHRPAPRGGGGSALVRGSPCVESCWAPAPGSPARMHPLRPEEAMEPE

[5] = tested on: Epidermal growth factor receptor (Homo sapiens), P00533 [T790M]; assay: EGFR (ErbB1) T790M Kinase screen; details: Compound concentration 1.0 uM
Chain of Epidermal growth factor receptor (Homo sapiens), P00533 [T790M] (P00533 whole entry T790M): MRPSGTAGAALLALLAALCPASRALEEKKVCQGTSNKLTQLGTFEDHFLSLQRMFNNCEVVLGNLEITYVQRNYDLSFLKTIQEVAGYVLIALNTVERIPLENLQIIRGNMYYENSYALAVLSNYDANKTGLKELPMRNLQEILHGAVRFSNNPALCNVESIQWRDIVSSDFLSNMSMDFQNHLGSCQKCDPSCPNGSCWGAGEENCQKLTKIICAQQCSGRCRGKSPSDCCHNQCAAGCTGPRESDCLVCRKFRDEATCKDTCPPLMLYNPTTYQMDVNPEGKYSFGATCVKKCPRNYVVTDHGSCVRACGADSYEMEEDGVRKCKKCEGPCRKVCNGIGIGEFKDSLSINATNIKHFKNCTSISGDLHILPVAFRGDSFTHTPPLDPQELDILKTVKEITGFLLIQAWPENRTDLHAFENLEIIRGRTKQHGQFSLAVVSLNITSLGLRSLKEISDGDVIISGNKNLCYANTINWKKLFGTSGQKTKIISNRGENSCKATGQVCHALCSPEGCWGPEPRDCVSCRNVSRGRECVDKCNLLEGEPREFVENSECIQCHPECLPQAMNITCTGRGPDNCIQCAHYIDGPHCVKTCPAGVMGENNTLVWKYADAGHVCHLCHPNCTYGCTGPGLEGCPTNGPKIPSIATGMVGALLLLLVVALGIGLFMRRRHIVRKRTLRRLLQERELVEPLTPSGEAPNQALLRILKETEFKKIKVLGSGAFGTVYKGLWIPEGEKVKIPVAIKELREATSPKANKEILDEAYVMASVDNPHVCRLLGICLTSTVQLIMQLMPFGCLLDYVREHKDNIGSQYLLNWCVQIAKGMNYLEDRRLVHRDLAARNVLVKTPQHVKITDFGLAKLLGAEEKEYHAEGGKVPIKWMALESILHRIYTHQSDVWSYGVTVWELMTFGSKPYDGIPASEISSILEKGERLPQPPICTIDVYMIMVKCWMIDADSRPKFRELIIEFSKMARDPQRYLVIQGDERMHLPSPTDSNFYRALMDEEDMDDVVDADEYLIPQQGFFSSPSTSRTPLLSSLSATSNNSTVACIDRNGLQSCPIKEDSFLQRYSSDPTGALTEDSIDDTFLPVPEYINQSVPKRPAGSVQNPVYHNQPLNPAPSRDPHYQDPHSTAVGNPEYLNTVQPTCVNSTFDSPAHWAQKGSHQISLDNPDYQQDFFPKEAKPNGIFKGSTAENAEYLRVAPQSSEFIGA

[6] = target: High affinity nerve growth factor receptor (Homo sapiens) (UniProt P04629); assay: NTRK1 (TRKA) Kinase screen; details: Compound concentration 1.0 uM
Chain of High affinity nerve growth factor receptor (Homo sapiens) (P04629 33-796 limits assumed): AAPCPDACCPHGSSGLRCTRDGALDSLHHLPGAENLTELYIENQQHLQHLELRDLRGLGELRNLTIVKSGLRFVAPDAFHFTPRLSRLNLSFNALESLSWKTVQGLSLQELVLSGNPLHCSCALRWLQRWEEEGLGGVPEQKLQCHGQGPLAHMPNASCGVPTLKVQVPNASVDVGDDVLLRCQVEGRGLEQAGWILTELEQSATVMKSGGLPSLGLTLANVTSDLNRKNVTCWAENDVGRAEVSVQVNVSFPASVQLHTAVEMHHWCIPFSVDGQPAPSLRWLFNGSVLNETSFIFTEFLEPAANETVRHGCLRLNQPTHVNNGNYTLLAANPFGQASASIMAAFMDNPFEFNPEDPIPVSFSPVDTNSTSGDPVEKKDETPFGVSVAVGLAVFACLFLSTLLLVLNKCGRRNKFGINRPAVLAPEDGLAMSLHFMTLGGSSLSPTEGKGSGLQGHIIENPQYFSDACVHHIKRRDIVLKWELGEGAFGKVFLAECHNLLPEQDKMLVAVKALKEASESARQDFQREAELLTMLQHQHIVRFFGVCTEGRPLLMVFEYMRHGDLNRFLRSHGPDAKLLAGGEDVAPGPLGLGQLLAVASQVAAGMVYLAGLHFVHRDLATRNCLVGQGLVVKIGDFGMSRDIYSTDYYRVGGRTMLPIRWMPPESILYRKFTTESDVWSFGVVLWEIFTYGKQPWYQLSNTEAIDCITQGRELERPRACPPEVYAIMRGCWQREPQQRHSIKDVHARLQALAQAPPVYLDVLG

[7] = target: Ribosomal protein S6 kinase alpha-1 (Homo sapiens) (UniProt Q15418); assay: RPS6KA1 (RSK1) Kinase screen; details: Compound concentration 1.0 uM
[8] = target: Dual specificity mitogen-activated protein kinase kinase 2 (Homo sapiens) (UniProt P36507); assay: MAP2K2 (MEK2) Kinase screen; details: Compound concentration 1.0 uM
Chain of Dual specificity mitogen-activated protein kinase kinase 2 (Homo sapiens) (P36507 whole entry): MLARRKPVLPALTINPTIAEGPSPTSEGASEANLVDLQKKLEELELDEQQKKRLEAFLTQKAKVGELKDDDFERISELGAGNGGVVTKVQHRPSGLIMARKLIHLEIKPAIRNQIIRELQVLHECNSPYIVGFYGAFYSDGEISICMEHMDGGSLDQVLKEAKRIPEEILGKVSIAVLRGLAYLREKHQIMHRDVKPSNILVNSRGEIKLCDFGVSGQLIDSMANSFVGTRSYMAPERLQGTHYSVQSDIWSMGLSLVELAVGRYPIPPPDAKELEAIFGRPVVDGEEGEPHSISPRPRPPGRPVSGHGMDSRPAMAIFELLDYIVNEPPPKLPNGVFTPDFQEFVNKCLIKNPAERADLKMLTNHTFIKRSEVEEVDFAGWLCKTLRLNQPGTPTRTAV

[9] = target: T2, cGMP-dependent protein kinase 1 (Homo sapiens) (UniProt Q13976); assay: PRKG1 Kinase screen; details: Compound concentration 1.0 uM
T2 sequence (whole entry): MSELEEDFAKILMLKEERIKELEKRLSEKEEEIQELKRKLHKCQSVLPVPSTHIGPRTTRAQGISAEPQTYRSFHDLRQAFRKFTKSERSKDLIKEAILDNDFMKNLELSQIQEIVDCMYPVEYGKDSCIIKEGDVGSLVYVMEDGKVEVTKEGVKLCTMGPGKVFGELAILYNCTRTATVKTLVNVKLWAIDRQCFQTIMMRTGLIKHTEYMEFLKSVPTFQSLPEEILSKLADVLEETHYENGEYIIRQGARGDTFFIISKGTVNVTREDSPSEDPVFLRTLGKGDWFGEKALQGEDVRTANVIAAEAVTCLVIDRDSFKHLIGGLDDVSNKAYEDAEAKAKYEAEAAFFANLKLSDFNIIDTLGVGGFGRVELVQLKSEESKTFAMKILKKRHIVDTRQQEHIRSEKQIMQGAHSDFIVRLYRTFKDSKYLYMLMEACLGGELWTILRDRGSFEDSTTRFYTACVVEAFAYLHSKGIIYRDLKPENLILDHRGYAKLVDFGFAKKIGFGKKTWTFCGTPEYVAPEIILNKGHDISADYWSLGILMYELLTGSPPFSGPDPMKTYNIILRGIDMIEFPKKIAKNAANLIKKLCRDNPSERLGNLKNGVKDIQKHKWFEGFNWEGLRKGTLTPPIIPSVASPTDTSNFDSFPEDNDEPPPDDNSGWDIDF

[10] = target: T3, Serine/threonine-protein kinase BRSK1 (Homo sapiens) (UniProt Q8TDC3); assay: BRSK1 (SAD1) Kinase screen; details: Compound concentration 1.0 uM
T3 sequence (whole entry): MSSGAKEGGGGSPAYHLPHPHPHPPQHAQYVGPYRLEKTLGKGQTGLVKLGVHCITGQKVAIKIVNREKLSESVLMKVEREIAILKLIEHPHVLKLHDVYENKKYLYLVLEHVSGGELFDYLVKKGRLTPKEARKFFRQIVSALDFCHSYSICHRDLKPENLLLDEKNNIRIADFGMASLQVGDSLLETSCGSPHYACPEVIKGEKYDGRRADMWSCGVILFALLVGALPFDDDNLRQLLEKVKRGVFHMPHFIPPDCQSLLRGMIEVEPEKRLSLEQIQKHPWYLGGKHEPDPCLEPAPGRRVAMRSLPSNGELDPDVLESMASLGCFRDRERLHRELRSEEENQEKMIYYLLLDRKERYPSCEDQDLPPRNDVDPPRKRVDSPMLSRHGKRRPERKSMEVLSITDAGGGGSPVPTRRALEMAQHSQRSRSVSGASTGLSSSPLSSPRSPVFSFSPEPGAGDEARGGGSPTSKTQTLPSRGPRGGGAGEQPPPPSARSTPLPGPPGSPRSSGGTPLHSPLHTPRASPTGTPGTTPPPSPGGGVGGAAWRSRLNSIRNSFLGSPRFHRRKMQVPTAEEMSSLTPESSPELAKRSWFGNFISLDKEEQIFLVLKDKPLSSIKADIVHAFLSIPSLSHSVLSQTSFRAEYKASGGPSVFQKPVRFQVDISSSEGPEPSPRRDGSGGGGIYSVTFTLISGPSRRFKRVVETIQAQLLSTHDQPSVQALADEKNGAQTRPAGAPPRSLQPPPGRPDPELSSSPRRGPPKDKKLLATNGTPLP

[11] = target: Kappa-type opioid receptor (Homo sapiens) (UniProt P41145); details: Compound concentration 10.0 uM
[12] = target: Angiopoietin-1 receptor (Homo sapiens) (UniProt Q02763); assay: TEK (Tie2) Kinase screen; details: Compound concentration 1.0 uM
Chain of Angiopoietin-1 receptor (Homo sapiens) (Q02763 whole entry): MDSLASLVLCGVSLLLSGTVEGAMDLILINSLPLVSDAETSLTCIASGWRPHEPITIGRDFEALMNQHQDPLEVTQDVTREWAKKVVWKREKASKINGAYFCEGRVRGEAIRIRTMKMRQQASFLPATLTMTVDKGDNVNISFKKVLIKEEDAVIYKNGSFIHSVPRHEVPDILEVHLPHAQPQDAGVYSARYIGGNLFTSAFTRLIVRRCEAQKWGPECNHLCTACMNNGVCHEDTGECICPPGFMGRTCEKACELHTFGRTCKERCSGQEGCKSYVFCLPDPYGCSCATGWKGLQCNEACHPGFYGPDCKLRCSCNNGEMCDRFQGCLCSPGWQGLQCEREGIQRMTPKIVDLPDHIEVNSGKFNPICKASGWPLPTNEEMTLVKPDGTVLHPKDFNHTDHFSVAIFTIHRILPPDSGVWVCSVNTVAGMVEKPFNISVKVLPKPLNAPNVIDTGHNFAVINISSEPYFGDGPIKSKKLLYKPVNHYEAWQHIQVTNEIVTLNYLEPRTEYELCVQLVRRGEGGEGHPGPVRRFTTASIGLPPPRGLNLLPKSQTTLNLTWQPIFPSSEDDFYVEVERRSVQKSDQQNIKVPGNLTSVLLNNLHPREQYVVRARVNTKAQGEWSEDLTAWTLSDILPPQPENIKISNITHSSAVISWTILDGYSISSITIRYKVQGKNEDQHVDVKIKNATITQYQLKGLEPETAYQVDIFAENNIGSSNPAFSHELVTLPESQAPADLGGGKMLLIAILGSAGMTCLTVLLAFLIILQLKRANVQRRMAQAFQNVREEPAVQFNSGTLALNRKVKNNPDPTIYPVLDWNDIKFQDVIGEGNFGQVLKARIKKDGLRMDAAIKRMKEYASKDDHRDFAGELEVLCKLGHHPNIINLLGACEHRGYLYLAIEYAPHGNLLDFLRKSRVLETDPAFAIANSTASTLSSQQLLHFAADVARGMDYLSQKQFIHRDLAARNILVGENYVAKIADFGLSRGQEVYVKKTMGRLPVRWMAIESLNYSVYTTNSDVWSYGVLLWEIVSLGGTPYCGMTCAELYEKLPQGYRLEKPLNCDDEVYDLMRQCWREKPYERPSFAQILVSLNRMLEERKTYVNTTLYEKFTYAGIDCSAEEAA

[13] = target: Serine/threonine-protein kinase PAK 1 (Homo sapiens) (UniProt Q13153); assay: PAK1 Kinase screen; details: Compound concentration 1.0 uM
Chain of Serine/threonine-protein kinase PAK 1 (Homo sapiens) (Q13153 whole entry): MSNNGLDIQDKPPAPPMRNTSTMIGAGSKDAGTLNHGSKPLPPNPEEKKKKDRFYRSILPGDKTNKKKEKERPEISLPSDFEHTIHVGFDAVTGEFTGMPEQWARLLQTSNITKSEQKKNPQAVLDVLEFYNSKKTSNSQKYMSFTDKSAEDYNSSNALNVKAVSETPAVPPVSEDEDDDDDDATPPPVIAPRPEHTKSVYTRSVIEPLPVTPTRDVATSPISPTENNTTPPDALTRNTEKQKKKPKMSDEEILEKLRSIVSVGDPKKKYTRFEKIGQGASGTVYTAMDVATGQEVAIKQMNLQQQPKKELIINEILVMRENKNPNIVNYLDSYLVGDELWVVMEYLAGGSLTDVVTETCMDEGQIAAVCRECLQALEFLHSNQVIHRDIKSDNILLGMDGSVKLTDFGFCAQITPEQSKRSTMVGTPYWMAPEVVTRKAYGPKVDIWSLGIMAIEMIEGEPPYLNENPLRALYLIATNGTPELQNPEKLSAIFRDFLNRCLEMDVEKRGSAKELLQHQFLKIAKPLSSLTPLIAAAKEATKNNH

[14] = target: ATP-sensitive inward rectifier potassium channel 11 (Cricetulus griseus) (UniProt A0A3L7HHE1); assay: Inhibition of Potassium Channel [KATP] at 10 µM in the Eurofins-Panlabs radioligand binding assay (Eurofins_assay_265600); details: Cricetinae; Compound concentration 10.0 uM
Chain of ATP-sensitive inward rectifier potassium channel 11 (Cricetulus griseus) (A0A3L7HHE1 as listed by the source): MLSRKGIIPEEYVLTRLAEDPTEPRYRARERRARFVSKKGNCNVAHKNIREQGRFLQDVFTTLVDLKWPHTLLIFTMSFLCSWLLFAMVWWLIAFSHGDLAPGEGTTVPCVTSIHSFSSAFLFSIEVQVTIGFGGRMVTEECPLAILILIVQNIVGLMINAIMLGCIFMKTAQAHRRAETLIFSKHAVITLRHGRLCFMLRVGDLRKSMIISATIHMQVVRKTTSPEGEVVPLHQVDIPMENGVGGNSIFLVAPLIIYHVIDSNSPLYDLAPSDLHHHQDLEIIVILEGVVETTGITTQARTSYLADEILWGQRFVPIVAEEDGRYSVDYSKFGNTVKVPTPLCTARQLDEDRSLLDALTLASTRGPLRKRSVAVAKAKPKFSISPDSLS

[15] = target: Serine/threonine-protein kinase MRCK alpha (Homo sapiens) (UniProt Q5VT25); assay: CDC42 BPA (MRCKA) Kinase screen; details: Compound concentration 1.0 uM
[16] = target: Insulin-like growth factor 1 receptor (Homo sapiens) (UniProt P08069); assay: IGF1R Kinase screen; details: Compound concentration 1.0 uM
[17] = target: Acetylcholine receptor subunit alpha (Homo sapiens) (UniProt P02708); assay: Inhibition of Nicotinic Acetylcholine D1, Bungarotoxin at 10 µM in the Eurofins-Panlabs radioligand binding assay (Eurofins_assay_258700); details: Compound concentration 10.0 uM
[18] = target: CDK9/Cyclin K (Homo sapiens) (UniProt P50750+O75909); assay: CDK9/cyclin K Kinase screen; format: protein-complex assay; details: Compound concentration 1.0 uM

Measured: inhibition

C[C@@H]1CN(c2cc(-c3n[nH]c4ccc(OC5(C)CC5)cc34)ncn2)C[C@H](C)O1 [MLi-2]
inactive: [1] -9% | [2] 1.51% | [3] 7.02% | [4] 19.8% | [5] 3.93% | [6] 0.799% | [7] 8.66% | [8] 20.3% | [9] 0.194% | [10] 4.76% | [11] 19% | [12] 2.36% | [13] 6.76% | [14] 18% | [15] 2.46% | [16] 1.96% | [17] 6% | [18] -2.24%
